Results reported in ChEMBL document CHEMBL5113473, “Synthesis and biological evaluation of new 2‑substituted‑4‑amino-quinolines and -quinazoline as potential antifungal agents” (Bioorg Med Chem Lett, 2022).
Converted amounts (≈) assume the structure as drawn. The source made the active and inactive calls. No cut-off for these calls is given here.

Key:
Candida tropicalis = test: Antifungal activity against Candida tropicalis ATCC 1369 assessed as reduction in fungal growth by CLSI protocol based broth microdilution method; type: functional
Cryptococcus neoformans = test: Antifungal activity against Cryptococcus neoformans ATCC 32045 assessed as reduction in fungal growth by CLSI protocol based broth microdilution method; type: functional
Aspergillus fumigatus = test: Antifungal activity against Aspergillus fumigatus AS 3.3913 assessed as reduction in fungal growth by CLSI protocol based broth microdilution method; type: functional
Candida albicans [1] = test: Antifungal activity against Candida albicans ATCC 10231 assessed as reduction in fungal growth by CLSI protocol based broth microdilution method; type: functional
Candida albicans [2] = test: Fungistatic activity against Candida albicans ATCC 10231 assessed as reduction in fungal growth at 2 to 4 times MIC incubated for 36 hrs by Time kill assay; type: functional, organism-based; conditions: DDE = dose-dependent effect
Candida albicans [3] = test: Fungistatic activity against Candida albicans ATCC 10231 assessed as reduction in fungal growth at 4 times MIC incubated for 12 hrs by Time kill assay; type: functional, organism-based
[4] = Metabolic stability in mouse plasma assessed as parent compound remaining at 2 to 8 times; type: ADME, cell-free
Candida albicans [5] = test: Antibiofilm activity against Candida albicans ATCC 10231 assessed as inhibition of biofilm viability by XTT reduction assay; type: functional, organism-based
[6] = Cytotoxicity against human HUVEC cells assessed as reduction in cell viability by CCK-8 assay; type: toxicity, cell-based
[7] = Selectivity index, ration of CC50 for cytotoxicity against human HUVEC cells to MIC for antifungal activity against Candida albicans ATCC 10231; type: toxicity, cell-based; conditions: read-out: Selectivity Index
Candida albicans [8] = test: Antifungal activity against Candida albicans ATCC 10231 assessed as resistance development by measuring increase in MIC at 0.5 ug/ml after 20 passages by CLSI protocol based broth microdilution method; type: functional; conditions: dose 0.5 µg/ml
Cell membrane = test: Induction of cell membrane damage in Candida albicans ATCC 10231 at 2 to 4 times MIC by propidium iodide staining based fluorescence assay

Row | Compound | MIC (Candida tropicalis) [µg/mL] | MIC (Cryptococcus neoformans) [µg/mL] | MIC (Aspergillus fumigatus) [µg/mL] | MIC (Candida albicans [1]) [µg/mL] | Stability [4] [%] | Activity (Candida albicans [2]) | Activity (Candida albicans [3]) | Activity (Candida albicans [5]) | CC50 [6] [µM] | selectivity ratio [7] | MIC (Candida albicans [8]) [µg/mL] | Activity (Cell membrane)
1 | Cc1ccc(Nc2cc(-c3ccc(C(C)(C)C)cc3)nc3ccccc23)cc1.Cl | 32 | 4 | 2 | 32 |  |  |  |  |  |  |  | 
2 | Cc1ccc(Nc2cc(C)nc3ccccc23)cc1.Cl | 256 | 256 | 128 | 256 |  |  |  |  |  |  |  | 
3 | Cc1ccc(Nc2cc(-c3cccc(C)c3)nc3ccccc23)cc1.Cl | 32 | 128 | 128 | 8 |  |  |  |  |  |  |  | 
4 | Cc1ccc(Nc2cc(-c3ccc(C)cc3)nc3ccccc23)cc1.Cl | 16 | 8 | 4 | 8 | 80 | Dde | Active | Active | 36 | 1.63 |  | 
5 | COc1ccccc1-c1cc(Nc2ccc(C)cc2)c2ccccc2n1.Cl | 32 | 32 | 8 | 32 |  |  |  |  |  |  |  | 
6 | Cc1ccc(Nc2cc(-c3ccco3)nc3ccccc23)cc1.Cl | 16 | 32 | 128 | 32 |  |  |  |  |  |  |  | 
7 | Cc1ccc(Nc2cc(-c3ccc(F)cc3)nc3ccccc23)cc1.Cl | > 512 | > 512 | > 512 | > 512 |  |  |  |  |  |  |  | 
8 | COc1cccc(-c2cc(Nc3ccc(C)cc3)c3ccccc3n2)c1.Cl | 16 | 16 | 32 | 8 |  |  |  |  |  |  |  | 
9 | Cc1ccc(Nc2cc(-c3cccc(F)c3)nc3ccccc23)cc1.Cl | > 512 | > 512 | > 512 | > 512 |  |  |  |  |  |  |  | 
10 | Cc1ccc(Nc2cc(-c3cccc(Br)c3)nc3ccccc23)cc1.Cl | > 512 | > 512 | > 512 | > 512 |  |  |  |  |  |  |  | 
11 | C[C@@H]1[C@H](O)[C@@H](C)/C=C/C=C/C=C/C=C/C=C/C=C/C=C/[C@H](O[C@@H]2O[C@H](C)[C@@H](O)[C@H](N)[C@@H]2O)C[C@@H]2O[C@](O)(C[C@@H](O)C[C@@H](O)[C@H](O)CC[C@@H](O)C[C@@H](O)CC(=O)O[C@H]1C)C[C@H](O)[C@H]2C(=O)O [AMPHOTERICIN B] | 4 (≈ 4.33 µM) | 1 (≈ 1.08 µM) | > 512 | 1 (≈ 1.08 µM) |  | Dde |  |  | 4.92 | 4.55 | 128 (≈ 139 µM) | Active
12 | Cc1ccc(Nc2cc(-c3cccc(C(F)(F)F)c3)nc3ccccc23)cc1.Cl | 512 | 512 | > 512 | > 512 |  |  |  |  |  |  |  | 
13 | Cc1ccc(Nc2cc(-c3ccc(Br)cc3)nc3ccccc23)cc1.Cl | > 512 | 512 | > 512 | > 512 |  |  |  |  |  |  |  | 
14 | Cc1ccc(Nc2cc(C3CCCC3)nc3ccccc23)cc1.Cl | 32 | 64 | 16 | 64 |  |  |  |  |  |  |  | 
15 | Cc1ccc(Nc2cc(-c3cccs3)nc3ccccc23)cc1.Cl | 16 | 4 | 16 | 8 |  |  |  |  |  |  |  | 
16 | CCN(c1ccc(C)cc1)c1cc(-c2ccccc2OC)nc2ccccc12 | 256 (≈ 695 µM) | 16 (≈ 43.4 µM) | 256 (≈ 695 µM) | > 512 |  |  |  |  |  |  |  | 
17 | CCN(c1ccc(C)cc1)c1cc(-c2cccc(C)c2)nc2ccccc12 | 512 (≈ 1450 µM) | 64 (≈ 182 µM) | 512 (≈ 1450 µM) | 512 (≈ 1450 µM) |  |  |  |  |  |  |  | 
18 | Cc1ccc(Nc2cc(C3CC3)nc3ccccc23)cc1.Cl | 128 | 32 | 512 | 128 |  |  |  |  |  |  |  | 
19 | Cc1ccc(Nc2cc(C3CCC3)nc3ccccc23)cc1.Cl | 64 | 64 | 64 | 128 |  |  |  |  |  |  |  | 
20 | Cc1ccc(Nc2cc(-c3ccccc3Br)nc3ccccc23)cc1.Cl | 128 | 8 | 64 | > 512 |  |  |  |  |  |  |  | 

Further lines, with some results ahead:

Row | MIC (Candida tropicalis) [µg/mL] | MIC (Cryptococcus neoformans) [µg/mL] | MIC (Aspergillus fumigatus) [µg/mL] | MIC (Candida albicans [1]) [µg/mL] | Stability [4] [%] | Compound | Activity (Candida albicans [2]) | Activity (Candida albicans [3]) | Activity (Candida albicans [5]) | CC50 [6] [µM] | selectivity ratio [7] | MIC (Candida albicans [8]) [µg/mL] | Activity (Cell membrane)
21 | 256 | 4 | 64 | 128 |  | Cc1ccc(Nc2cc(-c3ccc4ccccc4c3)nc3ccccc23)cc1.Cl |  |  |  |  |  |  | 
22 | > 512 | > 512 | > 512 | > 512 |  | Cc1ccc(Nc2nc(-c3ccccc3)nc3ccccc23)cc1.Cl |  |  |  |  |  |  | 
23 | > 512 | 128 (≈ 363 µM) | 512 (≈ 1450 µM) | > 512 |  | CCN(c1ccc(C)cc1)c1cc(-c2ccc(C)cc2)nc2ccccc12 |  |  |  |  |  |  | 
24 | 256 | > 512 | > 512 | 512 |  | Cc1ccc(Nc2cc(-c3cccnc3)nc3ccccc23)cc1.Cl |  |  |  |  |  |  | 
25 | > 512 | > 512 | > 512 | > 512 |  | Cc1ccc(Nc2cc(-c3ccccc3F)nc3ccccc23)cc1.Cl |  |  |  |  |  |  | 
26 | 256 | 4 | 128 | > 512 |  | Cc1ccc(Nc2cc(-c3ccccc3C(F)(F)F)nc3ccccc23)cc1.Cl |  |  |  |  |  |  | 
27 | 16 | 8 | 8 | 16 |  | COc1ccc(-c2cc(Nc3ccc(C)cc3)c3ccccc3n2)cc1.Cl |  |  |  |  |  |  | 
28 | > 512 | 16 | > 512 | > 512 |  | Cc1ccc(Nc2cc(-c3ccc(C(F)(F)F)cc3)nc3ccccc23)cc1.Cl |  |  |  |  |  |  | 
29 | 32 | 32 | 32 | 16 |  | Cc1ccc(Nc2cc(-c3ccccc3C)nc3ccccc23)cc1.Cl |  |  |  |  |  |  | 
30 | 16 | 32 | > 512 | 16 |  | Cc1ccc(Nc2cc(C3CCCCC3)nc3ccccc23)cc1.Cl |  |  |  |  |  |  | 
31 | 32 | 32 | 64 | 32 |  | Cc1ccc(Nc2cc(-c3ccccc3)nc3ccccc23)cc1.Cl |  |  |  |  |  |  | 
32 | 128 | 32 | > 512 | 64 |  | Cc1ccc(Nc2cc(-c3ccc(Cl)cc3)nc3ccccc23)cc1.Cl |  |  |  |  |  |  | 
33 | 64 | 8 | 512 | > 512 |  | Cc1ccc(Nc2cc(-c3ccccc3Cl)nc3ccccc23)cc1.Cl |  |  |  |  |  |  | 
34 | 512 | 256 | 128 | 256 |  | Cc1ccc(Nc2ccnc3ccccc23)cc1.Cl |  |  |  |  |  |  | 
35 | > 512 | > 512 | > 512 | > 512 |  | Cc1ccc(Nc2cc(-c3cccc(Cl)c3)nc3ccccc23)cc1.Cl |  |  |  |  |  |  | 
